Laboratory results taken from patent US20160158245A1, “PHARMACEUTICAL FORMULATION CONTAINING THIENOTRIAZOLODIAZEPINE COMPOUNDS” (ONCOETHIX GmbH, priority 2013, published 2016).

Tests used:
Experiment in all cases: MTT assay
Format in all cases: cell-based
HL60 = settings: Homo sapiens, HL-60, HL60, MTT at 72 h
Protocol: (§1) Different representative cell lines for ALL including Jurkat cells (T-ALL), RS 4-11 (MLL-AF4 B-precursor ALL), TO′M-1, BV173 (both Ph+ALL) and AML including K562 (Ph+CML in blast crisis,), HL-60 (NRAS driven AML2), NOMO1 (MLL-AF9 driven AML), KG1 (BMP-FGRF+AML6) and its more immature subtype KG1a were cultured in RPMI 1640 (Gibco Invitrogen, Basel, Switzerland) supplemented with 10% or 20% heat-inactivated fetal calf serum respectively, 2 mM L-glutamine, 100 IU/mL penicillin, and 100 µg/mL streptomycin.
(§2) MTT-assay: cells were seeded first into 24-well plates at the density of […] per well to avoid variations of concentrations in smaller volumes and treated with different doses of OTX015 prepared freshly from 1 mM stock solution in DMSO. Cells were transferred to 96-well plates for MTT-assay. Untreated cells and cells treated with equal amounts of DMSO (0.2-1%) used for dilution of OTX015 were used as controls. The 3-(4,5-dimethylthiazol-2-yl)-2,5-diphenyltetrazolium bromide (MTT) (Molecular Probes, Eugene, USA) was prepared as a stock of 5 mg/ml in PBS. 0.5 mg/mL of MTT solution was then added per well and incubated in the dark at 37° C. for 4 h. Cells were then lysed with 25% SDS lysis buffer and absorbance was read at 570 nm. Two independent experiments were run for each cell line. GI50 values were calculated with Prism v5 software (GraphPad Inc., La Jolla, USA).
(§3) AML and ALL cell lines were exposed to increasing concentrations of compound (1-1), (0.1 nM-10 μM). […] GI50 values were expressed as means from 3 independent experiments.

Jurkat = settings: Homo sapiens, MTT at 72 h
Protocol: as §1, §2, §3

K562 = settings: Homo sapiens, K562, 72 h, K562, MTT at 72 h
Protocol: as §1, §2, §3

KG1a = settings: Homo sapiens, KG-1a, MTT at 72 h
Protocol: as §1, §2, §3

KG1 = settings: Homo sapiens, KG-1; KG1, MTT at 72 h
Protocol: as §1, §2, §3

RS4-11 = settings: Homo sapiens; RS4-11, MTT at 72 h
Protocol: as §1, §2, §3

TOM-1 = settings: TOM-1, MTT at 72 h
Protocol: as §1, §2, §3

Compound Cc1sc2c(c1C)C(c1ccc(Cl)cc1)=N[C@@H](CC(=O)Nc1ccc(O)cc1)c1nnc(C)n1-2 [Compound (1-1), 2-[(6S)-4-(4-chlorophenyl)-2,3,9-trimethyl-6H-thienol[3,2-f]-[1,2,4]triazolo[4,3-a][1,4]diazepin-6-yl]-N-(4-hydroxyphenyl)acetamide dihydrate] has a GI50 (HL60) of 1310 nM, an IC50 (HL60; read-out: GI value) of 1300 nM and a GI50 (Jurkat) of 250 nM. The GI50 (K562) was 11300 nM, the GI50 (K562; mean of 3 independent experiments) was 11300 nM and the GI50 (KG1a) was 1340 nM. It also gave an IC50 (KG1a; read-out: GI value) of 1300 nM, a GI50 (KG1) of 198 nM and a GI50 (RS4-11) of 34.2 nM. It also gave a GI50 (TOM-1) of 133 nM.
